Reference: US9469598B2, “Erythropoietin production-promoting agent” (SBI Pharmaceuticals Co., Ltd., priority 2011, dated 2016)
Structures can show the parent of a compound that is named as a salt.

System: HEP3B cells
Assay: Erythropoietin production by HEP3B cells with reduced erythropoietin production ability (ELISA of culture supernatant)
Format: cell-based, human
Conditions: 1% oxygen, 24 h
From the text: Erythropoietin production ability of erythropoietin producer cells were reduced by culturing the erythropoietin producer cells under hypoxic condition to allow artificial production of erythropoietin, and then adding inflammatory cytokine or uremia toxin.
TNF-α was employed as the inflammatory cytokine. In addition, indoxyl sulfate was employed as the uremic toxin. Indoxyl sulfate is thought to be the causative substance of uremic toxin, and is also the most commonly used uremia-related marker. Indoxyl sulfate in vivo is also a substance where tryptophan-derived indoles are sulfated and synthesized in the liver. Accordingly, a state of reduced erythropoietin production by addition of inflammatory cytokine or uremic toxin is a state of mimicked renal anemia.
In this Example, HEP3B cells which are liver cancer cells that produce erythropoietin of Groups I to VI with different culture conditions (from ATCC) were used. First, as a culturing step common to all 6 groups, about 300,000 HEP3B cells per well of a 12-well plate were cultured. The culture condition employed was culturing in RPMI1640 medium supplemented with 10% FCS/PC-SM at 37° C. under 20% oxygen condition. After 24 hours of culture, they were divided into the following culture conditions I to VI, and further cultured for 24 hours. Human recombinant TNF-a (rhTNF-a; Roche) was employed as TNF-α in the following.
After culturing for 24 hours under the above culture conditions I to VI, the culture supernatant was separated, and the concentration of erythropoietin contained in the culture supernatant was measured with “Human Erythropoietin ELISA kit” (from Bender MedSystems).

## Cl.NCC(=O)CCC(=O)O [aminolevulinic acid hydrochloride, 5-aminolevulinic acid hydrochloride]
1 mM indoxyl sulfate, 0.3 μM 5-aminolevulinic acid hydrochloride with 0.15 μM sodium ferrous citrate
  erythropoietin concentration in culture supernatant, Group (VI) vs Group (V): significantly high erythropoietin concentration value compared to Group (V)
220 U/ml TNF-α, 0.3 μM 5-aminolevulinic acid hydrochloride with 0.15 μM sodium ferrous citrate
  erythropoietin concentration in culture supernatant, Group (IV) vs Group (III): significantly high erythropoietin concentration value compared to Group (III)

## O=S(=O)(O)Oc1c[nH]c2ccccc12 [indoxyl sulfate]
1 mM indoxyl sulfate
  erythropoietin concentration in culture supernatant, Group (V) vs Group (I): decrease in the concentration of erythropoietin was observed

## TNF-α
220 U/ml TNF-α
  erythropoietin concentration in culture supernatant, Group (III) vs Group (I): decrease in the concentration of erythropoietin was observed
